Measurements from patent publication US11141411B2, “Methods of treating neurological, metabolic, and other disorders using enantiopure deuterium-enriched pioglitazone” (Poxel SA, priority 2014, dated 2021).

Experiments:
[1] = Body weight gain in male C57BL/6J mice on a standard diet; assay type: in vivo, mouse; details: twice daily oral gavage 11 days, overall daily dose h-rac-pio 30 mg/kg, d-S-pio 15 mg/kg, d-R-pio 15 mg/kg, vs. vehicle
Protocol: Male C57BL/6J mice (about 28 g body weight) were acclimated singly-housed for one week to a reverse light/dark cycle with free access to water and standard maintenance diet. Animals were then handled daily for one week followed by another 7 days of twice daily dosing with vehicle (0.5% methylcellulose in water) by oral gavage. […] Body weights were measured twice daily, prior to each dosing, to adjust individual dosing volumes to actual body weights.

[2] = tested on: db/db mice; test: db/db mouse model of type II diabetes, 10-day daily oral dosing; assay type: in vivo; details: daily oral gavage 10 days, h-rac-pio 30 mg/kg, vs. vehicle; for decrease of inflammatory biomarker IL-6 / decrease of inflammatory biomarker TNF-α: d-R-pio 20 mg/kg; for adiponectin: d-S-pio 20 mg/kg
Protocol: Body weights were measured throughout the study. Non-fasting blood glucose (10 μL by tail snip) was measured 4 hours prior to first dose, and animals were sorted and assigned to groups based on this measure. […] A terminal blood sample was collected for determination of serum levels of cholesterol, triglycerides, free fatty acids, adiponectin, serum amyloid A, and cytokines IL-6, TNF-α, and MCP-1, using standard analytical methods. Quantitative results were analyzed by statistical methods using, as appropriate, one- or two-way ANOVA or Kruskal-Wallis tests for differences followed by Sidak's, Dunnett's, or Dunn's post-test to determine differences vs. vehicle-treated control animals. All graphs were generated with GraphPad Prism version 6.0.2 (GraphPad Software, Inc., La Jolla, Calif.).

[3] = Pharmacokinetics in male C57BL/6 mice, oral gavage once a day for 5 days; details: day 5, d-S-pio or d-R-pio 15 mg/kg oral gavage daily; for t1/2 d-S: elimination half-life of analyte d-S-pio; for t1/2 h-R: elimination half-life of analyte h-R-pio; for t1/2 h-R / t1/2 h-S: h-rac-pio 30 mg/kg; for t1/2 h-S: elimination half-life of analyte h-S-pio
Protocol: Animals were then euthanized. Plasma was separated by centrifugation and stored at −80° C. until analyzed.
Concentrations were calculated by interpolation on standard curves generated from mouse plasma samples spiked with known concentrations of the pure analytes.

| SMILES | percent body weight difference versus day 1 body weight [1] | decrease of inflammatory biomarker IL-6 [2] | decrease of inflammatory biomarker TNF-α [2] | adiponectin [2] | insulin [2] | t1/2 d-S [3] | t1/2 h-R [3] | t1/2 h-S [3] |
| --- | --- | --- | --- | --- | --- | --- | --- | --- |
| CCc1ccc(CCOc2ccc(CC3SC(=O)NC3=O)cc2)nc1 (racemic) [h-rac-pio, rac-5-({p-[2-(5-Ethyl-2-pyridyl)ethoxy]phenyl}methyl)-1,3-thiazolidine-2,4-dione] | statistically significant increase in percent body weight difference compared to dosing with vehicle | trending | trending | significantly increased adiponectin | significantly decreased insulin |  |  |  |
| [2H][C@]1(Cc2ccc(OCCc3ccc(CC)cn3)cc2)SC(=O)NC1=O [d-R-pio, (R)-5-({p-[2-(5-ethyl-2-pyridyl)ethoxy]phenyl}methyl)-(5-^2H)-1,3-thiazolidine-2,4-dione] | did not increase percent body weight difference over vehicle | trending | trending |  |  | 0.8 h | 2.5 h | 2.5 h |
| [2H][C@@]1(Cc2ccc(OCCc3ccc(CC)cn3)cc2)SC(=O)NC1=O [d-S-pio, (S)-5-({p-[2-(5-Ethyl-2-pyridyl)ethoxy]phenyl}methyl)-(5-^2H)-1,3-thiazolidine-2,4-dione] | statistically significant increase in percent body weight difference compared to dosing with vehicle |  |  | significantly increased adiponectin |  | 2.3 h | 3.2 h | 3.1 h |
